{"source": "patent US20260263357A1", "about": "“PHASE SHIFTING INTRAVITREAL TAMPONADE” (Avant Sciences, Inc., priority 2023, published 2026)", "key": {"[1]": {"conditions": "cited from earlier work"}, "[2]": {"conditions": "Table 5; cited from earlier work"}, "[3]": {"conditions": "cited from earlier work", "remark": "listed apart in the source"}, "[4]": {"assay": "Experimental ultrasound absorbance (amplitude attenuation coefficient)", "type": "physicochemical", "description": "In some embodiments, the compounds of Structure 1 are capable of absorbing ultrasonic wave energy. The capacity of a given chemical to convert applied ultrasound from vibrational energy into heat is termed its ultrasonic absorbance, which itself varies depending upon the initial temperature and the frequency of the applied ultrasound. Additionally, the native vitreous within biological tissues approximates that of water, which itself has an ultrasonic absorption profile; thus, there is a baseline transmission of acoustic energy through ocular tissues, and this characteristic is routinely leveraged when it comes to various forms of imaging and therapy (Southern, Australas J Ultrasound Med. 2009 February; 12 (1): 32-37). In some embodiments, a compound that can preferentially absorb ultrasound more readily than that of water has the capacity to disproportionately absorb applied ultrasonic energy versus that of vitreous within the vitreous cavity. As such absorption would lead to local increase in temperature, thus facilitate the phase shift to a gaseous state.\nWith reference to Table 3, a compound with a larger amplitude attenuation coefficient absorbs ultrasound more than a compound that has a lower amplitude attenuation coefficient. It is clear that each of the compounds of Structure 1 (as shown in Table 3) is orders of magnitude more likely to absorb ultrasonic energy than water/vitreous. […] Indeed, it is notable that water, the least absorptive compound shown, is not only clearly symmetric on both a rotational axis and the mirror plane, but also has some of the strongest hydrogen bond forces in all of chemistry, allowing it to “pack itself together” much more readily than the other compounds on the list."}, "[5]": {"system": "New Zealand white rabbits", "assay": "Fundus imaging of tamponade bubble after injection into rabbit vitreous cavity (phase shift and removal)", "type": "in vivo", "conditions": "8 microliters injected into rabbit vitreous cavity", "protocol": "The biological safety of a compound of Structure 1 is tested within an animal model. In particular, 2,2,2-Trifluoroethyl 1,1,2,2-tetrafluoroethyl ether was tested within a New Zealand white rabbits, an animal model in line with previous retinal tamponade studies (Santos et al., Retina, 33 (1): p 120-127 (1991)).\n(§1) FIG. 1A includes a set of control retinal fundus images (near-infrared images IR and corresponding color images MC) for which balanced salt solution BSS (effectively water) was injected into a rabbit vitreous cavity. […] In other words, 2,2,2-Trifluoroethyl 1,1,2,2-tetrafluoroethyl ether was empirically determined to successfully phase shift under biological conditions at around 1 week post placement, and then subsequently carried out of the body over the next 2 months. […]\nas §1, with “6A” for “1A”, “1,1,2,3,3,3-Hexafluoropropyl difluoromethyl” for “2,2,2-Trifluoroethyl 1,1,2,2-tetrafluoroethyl”, “1-3 days” for “1 week”, “subsequently fully” for “subsequently”, “by Day 8.” for “over the next 2 months.”"}, "[6]": {"system": "New Zealand white rabbits", "assay": "Intraocular pressure measurements after intravitreal injection", "type": "in vivo, rabbit", "description": "(§2) Additionally, to address concerns about biological toxicity of these compounds, intraocular pressure measurements and both scotopic a-wave, b-wave, and photopic b-wave ERGs were done on all 6 rabbits in the study, without any statistically notable adverse signals (FIG. 2-5).\nAdditionally, to address concerns about biological toxicity of these compounds, intraocular pressure measurements were done on all 4 rabbits in the study, without any statistically notable adverse signals."}, "[7]": {"system": "New Zealand white rabbits", "assay": "Scotopic a-wave, b-wave and photopic b-wave ERGs after intravitreal injection", "type": "in vivo, rabbit", "conditions": "baseline and 2 months", "description": "as §2"}, "[8]": {"conditions": "Table 1, selected fluorinated alkanes"}, "[9]": {"conditions": "Table 2, selected fluorinated ethers"}, "[10]": {"conditions": "4 rabbits, up to about 1 month after injection, FIG. 7"}, "[11]": {"conditions": "6 rabbits, up to about two months after injection, FIG. 2"}}, "note": "Where two headings read alike, the source gives them in different places."}
{"smiles": "FC(C(F)(F)F)C(F)(F)OCC(F)(F)C(F)(F)C(F)(F)F", "note": "(centres unmarked) [1,1,1,2,2,3,3-Heptafluoro-4-(1,1,2,3,3,3-hexafluoropropoxy)butane, reference compound]", "values": [{"measurement": "Boiling Point", "setting": "[1]; Table 5", "value": 102, "unit": "°C"}, {"measurement": "Density", "setting": "[2]", "value": 1.63, "unit": "g/mL"}]}
{"smiles": "FC(F)C(F)(F)C(F)(F)F", "note": "[1,1,1,2,2,3,3-Heptafluoropropane]", "values": [{"measurement": "Flammable?", "setting": "[3]; [8]", "value": "No"}, {"measurement": "Boiling Point", "setting": "[1]; [8]", "value": "−16", "unit": "°C"}]}
{"smiles": "FCCC(F)(F)F", "note": "[1,1,1,3-Tetrafluoropropane]", "values": [{"measurement": "Flammable?", "setting": "[3]; [8]", "value": "YES"}]}
{"smiles": "FC(F)C(F)(F)C(F)F", "note": "[1,1,2,2,3,3-Hexafluoropropane]", "values": [{"measurement": "Flammable?", "setting": "[3]; [8]", "value": "No"}, {"measurement": "Boiling Point", "setting": "[1]; [8]", "value": 5, "unit": "°C"}]}
{"smiles": "FCC(F)(F)C(F)F", "note": "[1,1,2,2,3-Pentafluropropane]", "values": [{"measurement": "Flammable?", "setting": "[3]; [8]", "value": "YES"}, {"measurement": "Boiling Point", "setting": "[1]; [8]", "value": 26, "unit": "°C"}]}
{"smiles": "FC(F)C(F)(F)COCC(F)(F)C(F)F", "note": "[1,1,2,2-Tetrafluoro-3-(2,2,3,3-tetrafluoropropoxy)propane, reference compound]", "values": [{"measurement": "Boiling Point", "setting": "[1]; Table 5", "value": 35, "unit": "°C"}, {"measurement": "Density", "setting": "[2]", "value": 1.627, "unit": "g/mL"}]}
{"smiles": "FC(F)OC(F)(F)C(F)C(F)(F)F", "note": "(centres unmarked) [1,1,2,3,3,3-Hexafluoropropyl difluoromethyl ether]", "values": [{"measurement": "Flammable?", "setting": "[3]; [9]", "value": "No"}, {"measurement": "Boiling Point", "setting": "[1]; [9]", "value": 47, "unit": "°C"}, {"measurement": "Boiling Point", "setting": "[1]; Table 5", "value": 47, "unit": "°C"}, {"measurement": "Amplitude Attenuation Coefficient", "setting": "[4]", "value": 3.35, "unit": "db/cm-MHz"}, {"measurement": "Day by which agent is fully carried out of the body", "setting": "[5]; fundus images to D30", "value": "≤ 8", "unit": "days"}, {"measurement": "Density", "setting": "[2]", "value": 1.5, "unit": "g/mL"}, {"measurement": "Intraocular pressure compared to control (Balanced Salt Solution)", "setting": "[6]; [10]", "value": "not significantly different"}, {"measurement": "Intraocular pressure relative to normal physiologic range", "setting": "[6]; [10]", "value": "nor were their intraocular pressures outside of normal physiologic range throughout the study"}]}
{"smiles": "FCCC(F)F", "note": "[1,1,3-Trifluoropropane]", "values": [{"measurement": "Flammable?", "setting": "[3]; [8]", "value": "YES"}]}
{"smiles": "CC(F)(F)OCC(F)(F)F", "note": "[1,1-Difluoroethyl 2,2,2-trifluoroethyl ether]", "values": [{"measurement": "Flammable?", "setting": "[3]; [9]", "value": "YES"}]}
{"smiles": "COC(F)C(F)(F)F", "note": "(centres unmarked) [1,2,2,2-Tetrafluoroethyl methyl ether]", "values": [{"measurement": "Flammable?", "setting": "[3]; [9]", "value": "YES"}]}
{"smiles": "FC(F)C(F)(F)OCC(F)(F)F", "note": "[2,2,2-Trifluoroethyl 1,1,2,2-tetrafluoroethyl ether]", "values": [{"measurement": "Flammable?", "setting": "[3]; [9]", "value": "No"}, {"measurement": "Boiling Point", "setting": "[1]; [9]", "value": 56, "unit": "°C"}, {"measurement": "Boiling Point", "setting": "[1]; Table 5", "value": 56.7, "unit": "°C"}, {"measurement": "Amplitude Attenuation Coefficient", "setting": "[4]", "value": 2.65, "unit": "db/cm-MHz"}, {"measurement": "Time over which agent is carried out of the body after phase shift", "setting": "[5]; fundus images to D56", "value": "~2", "unit": "months"}, {"measurement": "Density", "setting": "[2]", "value": 1.487, "unit": "g/mL"}, {"measurement": "Scotopic a-wave ERG amplitude (rod and cone cells, dark-adapted) vs control (Balanced Salt Solution)", "setting": "[7]; FIG. 3", "value": "no significant difference"}, {"measurement": "Scotopic b-wave ERG amplitude (bipolar cells, dark-adapted) vs control (Balanced Salt Solution)", "setting": "[7]; FIG. 4", "value": "no significant difference"}, {"measurement": "Photopic b-wave ERG amplitude (bipolar cells, light-adapted) vs control (Balanced Salt Solution)", "setting": "[7]; FIG. 5", "value": "no significant difference"}, {"measurement": "Intraocular pressure compared to control (Balanced Salt Solution)", "setting": "[6]; [11]", "value": "not significantly different"}, {"measurement": "Intraocular pressure relative to normal physiologic range", "setting": "[6]; [11]", "value": "nor were their intraocular pressures outside of normal physiologic range throughout the study"}]}
{"smiles": "FCOCF", "note": "[Bis(fluoromethyl) ether]", "values": [{"measurement": "Flammable?", "setting": "[3]; [9]", "value": "YES"}, {"measurement": "Boiling Point", "setting": "[1]; [9]", "value": 34, "unit": "°C"}]}
{"smiles": "FC(F)OCC(F)(F)C(F)(F)F", "note": "[Difluoromethyl 2,2,3,3,3-pentafluoropropyl ether]", "values": [{"measurement": "Flammable?", "setting": "[3]; [9]", "value": "No"}, {"measurement": "Boiling Point", "setting": "[1]; [9]", "value": 46, "unit": "°C"}, {"measurement": "Boiling Point", "setting": "[1]; Table 5", "value": 46, "unit": "°C"}, {"measurement": "Amplitude Attenuation Coefficient", "setting": "[4]", "value": 0.57, "unit": "db/cm-MHz"}, {"measurement": "Density", "setting": "[2]", "value": 1.46, "unit": "g/mL"}]}
{"smiles": "CCOC(F)(F)C(F)(F)F", "note": "[Ethyl pentafluoroethyl ether]", "values": [{"measurement": "Flammable?", "setting": "[3]; [9]", "value": "YES"}, {"measurement": "Boiling Point", "setting": "[1]; [9]", "value": 30, "unit": "°C"}]}
{"smiles": "FC(OC(F)(F)C(F)(F)C(F)(F)F)C(F)(F)F", "note": "(centres unmarked) [Heptafluoropropyl 1,2,2,2-tetrafluoroethyl ether]", "values": [{"measurement": "Flammable?", "setting": "[3]; [9]", "value": "No"}, {"measurement": "Boiling Point", "setting": "[1]; [9]", "value": 40, "unit": "°C"}, {"measurement": "Boiling Point", "setting": "[1]; Table 5", "value": 40, "unit": "°C"}, {"measurement": "Amplitude Attenuation Coefficient", "setting": "[4]", "value": 3.58, "unit": "db/cm-MHz"}, {"measurement": "Density", "setting": "[2]", "value": 1.538, "unit": "g/mL"}]}
{"smiles": "COC(F)(F)C(F)(F)C(F)(F)F", "note": "[Heptafluoropropyl methyl ether]", "values": [{"measurement": "Flammable?", "setting": "[3]; [9]", "value": "No"}, {"measurement": "Boiling Point", "setting": "[1]; [9]", "value": 34, "unit": "°C"}]}
{"smiles": "FC(F)(F)C(F)(F)C(F)(F)F", "note": "[Perfluoropropane]", "values": [{"measurement": "Flammable?", "setting": "[3]; [8]", "value": "No"}]}
{"smiles": "O", "note": "[Water, reference compound]", "values": [{"measurement": "Amplitude Attenuation Coefficient", "setting": "[4]", "value": 0.002, "unit": "db/cm-MHz"}]}
{"smiles": "COC(F)(F)C(F)F", "note": "[tetrafluoroethyl methyl ether]", "values": [{"measurement": "Flammable?", "setting": "[3]; [9]", "value": "YES"}, {"measurement": "Boiling Point", "setting": "[1]; [9]", "value": 37, "unit": "°C"}]}
